The values that follow come from PMC10721329, “Quisinostat is a brain-penetrant radiosensitizer in glioblastoma” (JCI Insight, 2023).

“And” between values parts separate entries of the source, which are not always exact repeats. Equal entries are not always repeated. Where two headings read alike, the source gives them in different places.

A short description of this data set: Total and unbound QST in tumor and contralateral brain at survival end point, orthotopic GB126 PDX. Type of data set: in vivo. As to conditions: for UNBOUND [QST], Brain / UNBOUND [QST], Plasma / UNBOUND [QST], Tumor: individual mice; for concentration at 3 h: athymic nude, mouse. The procedure: All mice included in the survival study were processed for end-point PK and PD analyses once moribund. Plasma, tumor, and contralateral brain tissues were harvested 3 hours after dosing with 10 mg/kg QST, allowing for direct comparison of long-term treatment with the PK-PD data collected from acute (1-week) treatment with QST or combination therapy (Figure 8A). […] There were no significant differences in total or unbound drug concentrations in tumor or brain tissue between the monotherapy or combination therapy cohorts (Figure 8, E and F). Immunoblot analysis of dissected tumor samples confirmed that QST induced substantial histone H3 hyperacetylation in brain tumors, compared with untreated animals, consistent with an in vivo on-target effect (Figure 9, A and B).
QST concentrations in specimens were measured using reverse-phase LC on the AB SCIEX QTRAP6500+ LC-MS/MS system by operating electrospray in the positive ion mode. For liquid chromatographic separation, gradient elution was performed using a Phenomenex Kinetex F5 100 Å column (100 × 2.1 mm, 2.6 μm). The initial composition of the mobile phase was 70% phase A (0.1% formic acid in water) and 30% phase B (0.1% formic acid in 1:1 acetonitrile/methanol) with a 0.35 mL/min flow rate. Gradient elution was achieved as follows: mobile phase (B) was maintained at 30% from 0 to 0.3 minutes, increased to 95% from 0.3 to 0.8 minutes, maintained at 95% from 0.8 to 2.5 minutes, and decreased to 30% from 2.5 to 2.8 minutes. The total run time was 3.5 minutes. The internal standard used in this study was D8-infigratinib. The retention times for QST and D8-infigratinib were 1.6 and 1.8 minutes, respectively. Mass-to-charge ratio transitions were as follows: 395.20 → 144.00 (QST) and 568.08 → 321.00 (D8-infigratinib). LC-MS/MS analysis was performed using an Analyst 1.7 Chromatographic Data System. See Supplemental Methods for detailed PK experiments.
Gy on MWF for a total of 6 Gy in the first week of treatment. Treatment groups included vehicle (50% PEG-3000), QST (10 mg/kg) alone, 6 Gy whole-brain IR treatment with vehicle, and 6 Gy whole-brain IR treatment with 10 mg/kg QST. QST was administered to mice through intraperitoneal injections two hours prior to whole-brain radiation treatment. Upon completion of the radiation regimen, IR-treated mice subsequently received QST or vehicle alone for the rest of the experiment. Tumor growth and treatment response was monitored by IVIS bioluminescence […]
once per week. […]
Tissue from the hemisphere contralateral to the tumor was also collected as a normal brain/nontumor reference sample. For PK analyses, the mice were anesthetized with isoflurane, and at least 300 μL of blood was drawn from the right ventricle of the heart. The blood was collected in tubes containing 10 μL of 0.1 M KOH in EDTA to prevent blood coagulation. Blood samples were immediately centrifuged at 3000 rpm for 10 minutes at 4 °C to allow separation of plasma. After collection of the blood, the tumor was dissected out of the brain and flash -frozen.
Both plasma and erythrocytes were flash-frozen for subsequent analysis. […]
vortex-mixed for 10 s and centrifuged at 12000 g at 4 °C for 10 min. A 100-µL aliquot of the supernatant was transferred to an autosampler vial, and 5 µL was injected into the LC-MS/MS system for analysis. Whenever necessary, appropriate dilutions were made to accommodate the analysis of small volume samples.
Brain and Brain Tumor Sample Preparation
Normal brain and brain tumor tissue homogenates were prepared by 1:4 (mass/volume) ratio with PBS. Samples were homogenized under 6.00 m/s speed for 40 seconds with 3 cycles by Bead Ruptor Elite homogenizer (Omni International). Plasma was used as a surrogate matrix for brain/tumor homogenate. Brain homogenate samples from in vivo studies were prepared as described for plasma samples. Analyte and IS were extracted by protein precipitation with methanol containing IS. After centrifugation at 12000 rpm for 10 minutes at 4 °C, 5 µL of […]

In the case of `Cn1cc(CNCC2CCN(c3ncc(C(=O)NO)cn3)CC2)c2ccccc21` [QST, quisinostat], the “UNBOUND [QST], Brain” value runs as follows: (Combination (QST + IR) cohort) 3.62 nM and 1.48 nM and 2.18 nM; (QST cohort) 1.049 nM and 4.404 nM and 6.584 nM and 1.529 nM. In addition, the “UNBOUND [QST], Plasma” value (Combination (QST + IR) cohort) was 158.39 nM and 19.58 nM and 43.86 nM; the “UNBOUND [QST], Plasma” value (QST cohort) was 35.734 nM and 100.413 nM and 74.395 nM and 209.24 nM. The “UNBOUND [QST], Tumor” value was 66.7 nM and 35.51 nM and 128.5 nM and 21.89 nM and 23.43 nM (Combination (QST + IR) cohort); 93.34 nM and 77.02 nM and 33.36 nM and 81.88 nM (QST cohort). For the same molecule, the concentration at 3 h was 48.5 nM (brain (contralateral to tumor), intraperitoneal, 10 mg/kg, Combo cohort, mean, read-out: Total QST, Brain, Mean); 2.42 nM (brain (contralateral to tumor), intraperitoneal, 10 mg/kg, Combo cohort, mean, read-out: Unbound QST, Brain, Mean); 67.8 nM (brain (contralateral to tumor), intraperitoneal, 10 mg/kg, QST cohort, mean, read-out: Total QST, Brain, Mean); 3.39 nM (brain (contralateral to tumor), intraperitoneal, 10 mg/kg, QST cohort, mean, read-out: Unbound QST, Brain, Mean); 71.4 nM (in vivo, orthotopic GB126, end point (moribund), 3 hours after 10 mg/kg, read-out: unbound QST in tumors, mean); 3.4 nM (peritumoral (contralateral) brain tissue, intraperitoneal, 10 mg/kg, orthotopic GB126, end point (moribund), 3 hours after 10 mg/kg, read-out: unbound QST in peritumoral brain tissue, mean). Besides, the concentration at 3 h reads like this: (plasma, intraperitoneal, 10 mg/kg, Combo cohort, mean, read-out: Total QST, Plasma, Mean) 141 nM; (plasma, intraperitoneal, 10 mg/kg, Combo cohort, mean, read-out: Unbound QST, Plasma, Mean) 55.7 nM; (plasma, intraperitoneal, 10 mg/kg, QST cohort, mean, read-out: Total QST, Plasma, Mean) 265 nM; (plasma, intraperitoneal, 10 mg/kg, QST cohort, mean, read-out: Unbound QST, Plasma, Mean) 105 nM; (tumor, intraperitoneal, 10 mg/kg, Combo cohort, mean, read-out: Total QST, Tumor, Mean) 1100 nM; (tumor, intraperitoneal, 10 mg/kg, Combo cohort, mean, read-out: Unbound QST, Tumor, Mean) 55.2 nM. The concentration at 3 h amounted to 1430 nM (tumor, intraperitoneal, 10 mg/kg, QST cohort, mean, read-out: Total QST, Tumor, Mean) and 71.4 nM (tumor, intraperitoneal, 10 mg/kg, QST cohort, mean, read-out: Unbound QST, Tumor, Mean).
